# Paper PMC9026428, “New Peptide Based Fluconazole Conjugates with Expanded Molecular Targets” (Pharmaceutics, 2022)
# Residues, ends and D or L forms follow the SMILES beside them. *: point of attachment. X1 = O=C(CCCC(=O)*)OC(Cn1cncn1)(Cn1cncn1)c1ccc(F)cc1F
# Key:
# [1] = MTT cytotoxicity assay; conditions: human
# Method: (§1) The assessment of antifungal potential of synthesized agents was carried out using four reference strains (C. albicans ATCC 10231, C. albicans SC5314, C. glabrata DSM […] and C. krusei DSM […]) and six clinical isolates of fluconazole-resistant C. albicans that were provided by the Hospital of Medical University of Gdansk, Poland. Moreover, four C. albicans isolates, assigned as B3, B4, Gu4 and Gu5, were used for investigation whether the synthesized fluconazole derivatives were effectively removed from the yeast cells by the drug efflux transporters, as in the case of fluconazole. These strains were kindly provided by Prof. Joachim Morschhäuser from University of Würzburg (Würzburg, Germany). Strains Gu4 and B3 were fluconazole-sensitive isolates obtained from early infection episodes, while Gu5 and B4 were the corresponding fluconazole-resistant isolates obtained from later episodes in the same patients treated with fluconazole. The lack of susceptibility of the Gu5 strain to fluconazole was a consequence of overexpression of CDR1/2 genes encoding ABC transporters, whereas the resistance of B4 strain was caused by overexpression of the MDR1 gene encoding a membrane transport protein of the major facilitator superfamily (MFS). All of these Candida spp. strains were maintained on YPD agar plates (1% (w/v) yeast extract, 2% (w/v) peptone, 2% (w/v) glucose, 2% (w/v) agar) at 30 °C for 16–24 h. For all of the assays aimed at assessing the antifungal potential of the synthesized agents, the yeasts were cultivated at 37 °C in RPMI 1640 medium (with L-glutamine, without sodium bicarbonate, Sigma-Aldrich, Darmstadt, Germany)) buffered to a pH of 7.0 with 0.165 M morpholinepropanesulfonic acid (MOPS) buffer (Sigma-Aldrich). In this study, we used the human foreskin fibroblast cell line Hs27 (ATCC CRL 1634TM) and the human endothelial cell line HUVEC (C2519A), purchased from Lonza Group AG, (Basel, Switzerland). The Hs27 cells were maintained in cell media consisting of Dulbecco’s modified Eagles medium (DMEM), (Corning, Arizona, USA) with 10% fetal bovine serum (FBS), (Corning, Port Elizabeth, South Africa), 1% penicillin/streptomycin (Sigma-Aldrich Inc., Darmstadt, Germany), and 1% L-glutamine (Corning, Arizona, USA). The human endothelial cell line was maintained in cell media consisting of Endothelial Cell Growth Medium-2 Single Quots Kit (Lonza, USA). Both cell lines were cultured in an incubator at 37 °C and 5% CO2.
# (§2) Hs27 and HUVEC mammalian cell lines were cultured as mentioned above. Once cell lines were about 80% confluent, cells were counted by a hemacytometer (Hausser Scientific, Horsham, PA, USA) and plated in 96-well microtiter plates at concentrations of 4500 cells per well for Hs27 and 2000 cells per well for HUVEC. Cells were allowed to attach overnight. […] The final concentration of DMSO was ensured to be around 1% in all experiments. Cells were incubated with studied compounds for 72 h at 37 °C and 5% CO2. After incubation, 20 µL of MTT solution in PBS (4 mg/mL) was added to all wells and incubated further for 3 h at 37 °C. Formed formazan crystals were dissolved in 150 µL DMSO, and absorbance was measured using an Asys UVM340 multi-well plate reader at λ = 540 nm. Cytotoxicity was determined compared to drug-free control. All experiments were performed in biological triplicates.
# [2] = test system: Hs27 cells (human foreskin fibroblast cell line); assay: MTT cytotoxicity assay; conditions: Hs27 cells, MTT, 72 h, 37 °C, 100–1.5 μM, biological triplicates
# Method: as §1, §2
# [3] = test system: Candida albicans Gu4; assay: microbe, parasite or virus in culture; conditions: C. albicans Gu4 (fluconazole-sensitive isolate), RPMI 1640/MOPS pH 7.0, 24 h, 37 °C, triplicate
# Procedure, shortened: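 CLSI M27-A3-based microdilution, RPMI/MOPS pH 7.0, 24 h at 37 °C, ~1% DMSO.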
# [4] = test system: Candida albicans B3; assay: microbe, parasite or virus in culture; conditions: C. albicans B3 (fluconazole-sensitive isolate), RPMI 1640/MOPS pH 7.0, 24 h, 37 °C, triplicate
# Procedure, shortened: (§3)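 Yeasts were exposed to compounds in MOPS-buffered RPMI 1640 (pH 7.0) following a modified CLSI M27-A3 protocol and incubated 24 h at 37 °C. Wells were then subcultured onto drug-free YPD agar for a further 24 h to obtain minimum fungicidal concentrations.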
# [5] = test system: Candida albicans SC 5314; assay: microbe, parasite or virus in culture; conditions: C. albicans SC 5314, RPMI 1640/MOPS pH 7.0, 24 h, 37 °C, triplicate
# Procedure, shortened: as §3
# [6] = test system: Candida glabrata DSM 6128; assay: microbe, parasite or virus in culture; conditions: C. glabrata DSM 6128, RPMI 1640/MOPS pH 7.0, 24 h, 37 °C, triplicate
# Procedure, shortened: as §3
# [7] = test system: Candida krusei DSM 11226; assay: microbe, parasite or virus in culture; conditions: C. krusei DSM 11226, RPMI 1640/MOPS pH 7.0, 24 h, 37 °C, triplicate
# Procedure, shortened: as §3
# [8] = test system: Candida albicans 190; assay: microbe, parasite or virus in culture; conditions: C. albicans 190 (fluconazole-resistant clinical isolate), RPMI 1640/MOPS pH 7.0, 24 h, 37 °C, triplicate
# Procedure, shortened: as §3
# [9] = test system: Candida spp. strains tested; assay: Antifungal activity against the whole panel of strains tested; format: cell-based; conditions: panel of Table 2, 8–250 µM
# Method: Antifungal activity of the tested compounds against yeast cells was determined in 96-well plates as described in the CLSI document M27-A3 [39], with minor modifications (CLSI, 2008). Suspensions of the microorganisms were prepared by taking one loop of pure culture into sterile water and adjusting optical density to 0.1 at 660 nm wavelength and further 50-fold dilution in RPMI 1640 medium, resulting in cell concentration of approximately 2 × 10^4 CFU/mL [21]. Then, 100 μL of cells were added to the wells of a 96-well microtiter plate that contained 16–500 μM tested compounds and 16–500 μM of FLC or 0.2–62 μM AmB. The plates were incubated for 24 h at 37 °C. Each test was performed in triplicate. […] The MIC90 was defined as the lowest concentration of drug showing no visible growth; MIC50 was defined as the concentration that yielded at least 50% growth inhibition when compared with the growth control well.
# [10] = at least 50% growth inhibition vs growth control
# [11] = lowest concentration with no visible growth
compound,measurement,setting,value
CSCC[C@H](NC(=O)[C@H](C)NC(=O)[C@H](CCCNC(=N)N)NC(=O)[C@H](CCCCN)NC(=O)[C@H](Cc1c[nH]c2ccccc12)NC(=O)[C@H](CCC(N)=O)NC(=O)[C@H](Cc1ccccc1)NC(=O)[C@H](CS)NC(=O)CCCC(=O)OC(Cn1cncn1)(Cn1cncn1)c1ccc(F)cc1F)C(=O)N[C@@H](CCCNC(=N)N)C(=O)N[C@@H](CCCCN)C(=O)N[C@H](C(=O)N[C@@H](CCCNC(=N)N)C(N)=O)C(C)C [FLCpOH-HLopt2-NH2] (X1-CFQWKRAMRKVR-NH2),IC50 at 72 h,[1],> 100 µM
same,In vitro cytotoxicity IC90 ± SEM,[2],>100 µM
same,MIC50,[3]; [10],>250 µM
same,MIC90,[3]; [11],>250 µM
same,MIC50,[4]; [10],>250 µM
same,MIC90,[4]; [11],>250 µM
same,MIC50,[5]; [10],62 µM
same,MIC90,[5]; [11],125 µM
same,MIC50,[6]; [10],>250 µM
same,MIC90,[6]; [11],>250 µM
same,MIC50,[7]; [10],>250 µM
same,MIC90,[7]; [11],>250 µM
same,MIC50,[8]; [10],250 µM
same,MIC90,[8]; [11],>250 µM
same,"antifungal activity against the strains tested, in words",[9],moderately or poorly active
